The structures appear in SMILES notation.

In the first assay the test system is SARS-CoV-2. The assay can be described thus: SARS-CoV-2 antiviral assay (A549-hACE2, Nano luciferase). In kind it is cell-based. To be noted: Severe acute respiratory syndrome coronavirus 2, 48 h, A549-hACE2 cells, SARS-CoV2-Nano, MOI 0.025, 48 h; Table 4; read-out: EC50 SARS CoV2.
As for `C[C@H](NP(=O)(OC[C@H]1O[C@@](C#N)(c2ccc3c(N)ncnn23)[C@H](O)[C@@H]1O)Oc1ccc(C(C)(C)C)cc1)C(=O)OC1CCC1` (stereo partly drawn) [Example 31, Cyclobutyl ((((2R,3S,4R,5R)-5-(4-aminopyrrolo[2,1-f][1,2,4]triazin-7-yl)-5-cyano-3,4-dihydroxytetrahydrofuran-2-yl)methoxy)(4-(tert-butyl)phenoxy)phosphoryl)-L-alaninate], the EC50 was determined as 250 nM.

In the case of `CC(=O)O[C@H]1[C@@H](OC(C)=O)[C@](C#N)(c2ccc3c(N)ncnn23)O[C@@H]1COP(=O)(N[C@@H](C)CC(=O)OC1CCC1)Oc1ccc(C(C)(C)C)cc1` (stereo partly drawn) [Example 166, (2R,3R,4R,5R)-2-(4-aminopyrrolo[2,1-f][1,2,4]triazin-7-yl)-5-((((4-(tert-butyl)phenoxy)(((S)-4-cyclobutoxy-4-oxobutan-2-yl)amino)phosphoryl)oxy)methyl)-2-cyanotetrahydrofuran-3,4-diyl Diacetate], the EC50 was found to be 10000 nM.

In a further assay the test system is Respiratory syncytial virus (RSV) strain A2. In words: Hep-2 RSV2 384-well assay (EC50-HEP2-384). The class given is cell-based. The following applies: HEp-2 cells, RSV A2, MOI=4, 4 days, Table 3.
`CCCOC(=O)[C@H](C)NP(=O)(OC[C@H]1O[C@@](C#N)(c2ccc3c(N)ncnn23)[C@H](OC(=O)C(C)C)[C@@H]1OC(=O)C(C)C)Oc1ccc(C(C)(C)C)cc1` (single isomer, unassigned) [Example 48b] returned a 50% effective concentration (EC50) of 55.4 nM. The compound `CCCOC(=O)[C@H](C)NP(=O)(OC[C@H]1O[C@@](C#N)(c2ccc3c(N)ncnn23)[C@H](O)[C@@H]1O)Oc1ccc(C(C)(C)C)cc1` (single isomer, unassigned) [Example 47b] came in with a concentration giving a half-maximal response (EC50) of 68.3 nM. Same read-out and setting: as for `CC(=O)O[C@H]1[C@@H](OC(C)=O)[C@](C#N)(c2ccc3c(N)ncnn23)O[C@@H]1COP(=O)(N[C@@H](C)C(=O)OC1CC2(CCCC2)C1)Oc1ccc(C(C)(C)C)cc1` (stereo partly drawn) [Example 98b, (2R,3R,4R,5R)-2-(4-aminopyrrolo[2,1-f][1,2,4]triazin-7-yl)-5-((((4-(tert-butyl)phenoxy)(((S)-1-oxo-1-(spiro[3.4]octan-2-yloxy)propan-2-yl)amino)phosphoryl)oxy)methyl)-2-cyanotetrahydrofuran-3,4-diyl Diacetate], the figure is 52.2 nM; as for `CCC(=O)O[C@H]1[C@@H](OC(=O)CC)[C@](C#N)(c2ccc3c(N)ncnn23)O[C@@H]1COP(=O)(N[C@@H](C)C(=O)OC1CC2(CCCC2)C1)Oc1ccc(C(C)(C)C)cc1` (stereo partly drawn) [Example 99b, (2R,3R,4R,5R)-2-(4-aminopyrrolo[2,1-f][1,2,4]triazin-7-yl)-5-((((4-(tert-butyl)phenoxy)(((S)-1-oxo-1-(spiro[3.4]octan-2-yloxy)propan-2-yl)amino)phosphoryl)oxy)methyl)-2-cyanotetrahydrofuran-3,4-diyl Dipropionate], 66.9 nM; as for `CCC(CC)COC(=O)[C@H](C)NP(=O)(OC[C@H]1O[C@@](C#N)(c2ccc3c(N)ncnn23)[C@H](O)[C@@H]1O)Oc1cccc2c1CCCC2` (single isomer, unassigned) [Example 135], 1260 nM.

The same assay, now with this note: human respiratory syncytial virus, HEp-2, 96 h, HEp-2 cells, RSV A2, MOI=4, 4 days, Table 3.
Compound `C[C@H](NP(=O)(OC[C@H]1O[C@@](C#N)(c2ccc3c(N)ncnn23)[C@H](O)[C@@H]1O)Oc1ccc(C(C)(C)C)cc1)C(=O)OC1CCC1` (stereo partly drawn) [Example 31, Cyclobutyl ((((2R,3S,4R,5R)-5-(4-aminopyrrolo[2,1-f][1,2,4]triazin-7-yl)-5-cyano-3,4-dihydroxytetrahydrofuran-2-yl)methoxy)(4-(tert-butyl)phenoxy)phosphoryl)-L-alaninate] registered an EC50 of 53.2 nM. The same measure, in the same setting: as for `CC(=O)O[C@H]1[C@@H](OC(C)=O)[C@](C#N)(c2ccc3c(N)ncnn23)O[C@@H]1COP(=O)(N[C@@H](C)CC(=O)OC1CCC1)Oc1ccc(C(C)(C)C)cc1` (stereo partly drawn) [Example 166, (2R,3R,4R,5R)-2-(4-aminopyrrolo[2,1-f][1,2,4]triazin-7-yl)-5-((((4-(tert-butyl)phenoxy)(((S)-4-cyclobutoxy-4-oxobutan-2-yl)amino)phosphoryl)oxy)methyl)-2-cyanotetrahydrofuran-3,4-diyl Diacetate], the figure is 5000 nM; as for `CCC(CC)COC(=O)[C@H](C)NP(=O)(OC[C@H]1O[C@@](C#N)(c2ccc3c(N)ncnn23)[C@H](O)[C@@H]1O)Oc1ccc(N2CCOCC2)cc1` (stereo partly drawn) [Example 92, 2-ethylbutyl ((((2R,3S,4R,5R)-5-(4-aminopyrrolo[2,1-f][1,2,4]triazin-7-yl)-5-cyano-3,4-dihydroxytetrahydrofuran-2-yl)methoxy)(4-morpholinophenoxy)phosphoryl)-L-alaninate], 2490 nM; as for `C[C@H](NP(=O)(OC[C@H]1O[C@@](C#N)(c2ccc3c(N)ncnn23)[C@H](O)[C@@H]1O)Oc1ccc(C(C)(C)C)cc1)C(=O)OC1CC2(CCCC2)C1` (stereo partly drawn) [Example 97a, Spiro[3.4]octan-2-yl ((((2R,3S,4R,5R)-5-(4-aminopyrrolo[2,1-f][1,2,4]triazin-7-yl)-5-cyano-3,4-dihydroxytetrahydrofuran-2-yl)methoxy)(4-(tert-butyl)phenoxy)phosphoryl)-L-alaninate], 103 nM. Same read-out and setting: then `CC(C)C(=O)O[C@H]1[C@@H](OC(=O)C(C)C)[C@](C#N)(c2ccc3c(N)ncnn23)O[C@@H]1COP(=O)(N[C@@H](C)C(=O)OCc1ccccc1)Oc1ccc(C(C)(C)C)cc1` (stereo partly drawn) [Example 58, (2R,3R,4R,5R)-2-(4-aminopyrrolo[2,1-f][1,2,4]triazin-7-yl)-5-((((((S)-1-(benzyloxy)-1-oxopropan-2-yl)amino)(4-(tert-butyl)phenoxy)phosphoryl)oxy)methyl)-2-cyanotetrahydrofuran-3,4-diyl bis(2-methylpropanoate)], with 71.5 nM.

`CCC(CC)COC(=O)[C@H](C)NP(=O)(OC[C@H]1O[C@@](C#N)(c2ccc3c(N)ncnn23)[C@H](OC(C)=O)[C@@H]1OC(C)=O)Oc1ccc(OC2CCCCC2)cc1` (stereo partly drawn) [Example 152, (2R,3R,4R,5R)-2-(4-aminopyrrolo[2,1-f][1,2,4]triazin-7-yl)-2-cyano-5-((((4-(cyclohexyloxy)phenoxy)(((S)-1-(2-ethylbutoxy)-1-oxopropan-2-yl)amino)phosphoryl)oxy)methyl)tetrahydrofuran-3,4-diyl Diacetate] returned a 50% effective concentration (EC50) of 211 nM. `CC(C)C(=O)O[C@H]1[C@@H](OC(=O)C(C)C)[C@](C#N)(c2ccc3c(N)ncnn23)O[C@@H]1COP(=O)(N[C@@H](C)C(=O)OCC1CCCCC1)Oc1ccc(C(C)(C)C)cc1` (stereo partly drawn) [Example 164, (2R,3R,4R,5R)-2-(4-aminopyrrolo[2,1-f][1,2,4]triazin-7-yl)-5-((((4-(tert-butyl)phenoxy)(((S)-1-(cyclohexylmethoxy)-1-oxopropan-2-yl)amino)phosphoryl)oxy)methyl)-2-cyanotetrahydrofuran-3,4-diyl bis(2-methylpropanoate)] gave an EC50 of 107 nM. On the same count and under the same terms, then `CC(C)COC(=O)[C@H](C)NP(=O)(OC[C@H]1O[C@@](C#N)(c2ccc3c(N)ncnn23)[C@H](OC(=O)CC(C)C)[C@@H]1OC(=O)CC(C)C)Oc1ccc(C(C)(C)C)cc1` (stereo partly drawn) [Example 139, (2R,3R,4R,5R)-2-(4-aminopyrrolo[2,1-f][1,2,4]triazin-7-yl)-5-((((4-(tert-butyl)phenoxy)(((S)-1-isobutoxy-1-oxopropan-2-yl)amino)phosphoryl)oxy)methyl)-2-cyanotetrahydrofuran-3,4-diyl bis(3-methylbutanoate)], with 194 nM.

In turn, `COC(C)(C)COC(=O)[C@H](C)NP(=O)(OC[C@H]1O[C@@](C#N)(c2ccc3c(N)ncnn23)[C@H](O)[C@@H]1O)Oc1cccc2ccccc12` (stereo partly drawn) [Example 128, 2-methoxy-2-methylpropyl ((((2R,3S,4R,5R)-5-(4-aminopyrrolo[2,1-f][1,2,4]triazin-7-yl)-5-cyano-3,4-dihydroxytetrahydrofuran-2-yl)methoxy)(naphthalen-1-yloxy)phosphoryl)-L-alaninate] came in with an EC50 of 525 nM. The same measure, in the same setting: then `CCCOC(=O)[C@H](C)NP(=O)(OC[C@H]1O[C@@](C#N)(c2ccc3c(N)ncnn23)[C@H](OC(=O)C(C)C)[C@@H]1OC(=O)C(C)C)Oc1ccc(C(C)(C)C)cc1` (single isomer, unassigned) [Example 48a], with 34 nM. Same read-out and setting: as for `CCC(=O)O[C@H]1[C@@H](OC(=O)CC)[C@](C#N)(c2ccc3c(N)ncnn23)O[C@@H]1COP(=O)(N[C@@H](C)C(=O)OCC1CCC1)Oc1ccccc1` (stereo partly drawn) [Example 134, (2R,3R,4R,5R)-2-(4-aminopyrrolo[2,1-f][1,2,4]triazin-7-yl)-2-cyano-5-((((((S)-1-(cyclobutylmethoxy)-1-oxopropan-2-yl)amino)(phenoxy)phosphoryl)oxy)methyl)tetrahydrofuran-3,4-diyl Dipropionate], the figure is 93.8 nM; as for `CCC(CC)COC(=O)[C@H](C)NP(=O)(OC[C@H]1O[C@@](C#N)(c2ccc3c(N)ncnn23)[C@H](O)[C@@H]1O)Oc1ccc2c(c1)CCCC2` (stereo partly drawn) [Example 129, 2-ethylbutyl ((((2R,3S,4R,5R)-5-(4-aminopyrrolo[2,1-f][1,2,4]triazin-7-yl)-5-cyano-3,4-dihydroxytetrahydrofuran-2-yl)methoxy)((5,6,7,8-tetrahydronaphthalen-2-yl)oxy)phosphoryl)-L-alaninate], 362 nM.

Regarding `CCOC(=O)[C@H](C)NP(=O)(OC[C@H]1O[C@@](C#N)(c2ccc3c(N)ncnn23)[C@H](OC(=O)CC(C)C)[C@@H]1OC(=O)CC(C)C)Oc1ccc(C(C)(C)C)cc1` (stereo partly drawn) [Example 158, (2R,3R,4R,5R)-2-(4-aminopyrrolo[2,1-f][1,2,4]triazin-7-yl)-5-((((4-(tert-butyl)phenoxy)(((S)-1-ethoxy-1-oxopropan-2-yl)amino)phosphoryl)oxy)methyl)-2-cyanotetrahydrofuran-3,4-diyl bis(3-methylbutanoate)], a half-maximal effect (EC50) was put at 272 nM. `COCCOC(=O)[C@H](C)NP(=O)(OC[C@H]1O[C@@](C#N)(c2ccc3c(N)ncnn23)[C@H](OC(=O)C(C)C)[C@@H]1OC(=O)C(C)C)Oc1ccc(C(C)(C)C)cc1` (stereo partly drawn) [Example 151, (2R,3R,4R,5R)-2-(4-aminopyrrolo[2,1-f][1,2,4]triazin-7-yl)-5-((((4-(tert-butyl)phenoxy)(((S)-1-(2-methoxyethoxy)-1-oxopropan-2-yl)amino)phosphoryl)oxy)methyl)-2-cyanotetrahydrofuran-3,4-diyl bis(2-methylpropanoate)] had an EC50 of 55.6 nM.

As for `CCC(CC)COC(=O)[C@H](C)NP(=O)(OC[C@H]1O[C@@](C#N)(c2ccc3c(N)ncnn23)[C@H](O)[C@@H]1O)Oc1ccc(C#N)cc1` (stereo partly drawn) [Example 39, 2-ethylbutyl ((((2R,3S,4R,5R)-5-(4-aminopyrrolo[2,1-f][1,2,4]triazin-7-yl)-5-cyano-3,4-dihydroxytetrahydrofuran-2-yl)methoxy)(4-cyanophenoxy)phosphoryl)-L-alaninate], a half-maximal effect (EC50) was put at 1600 nM.

As a reminder, the EC50 is the concentration that produces a half-maximal response.

The values are drawn from patent US12404289B2 (Gilead Sciences, Inc., priority 2020, dated 2025).
